From ChEMBL document CHEMBL3856285, “Recent progress in the identification of adenosine monophosphate-activated protein kinase (AMPK) activators” (Bioorg Med Chem Lett, 2016) come the findings set out here.

The species entered for test [1] is Rattus norvegicus.
Description: Allosteric activation of rat liver AMPK in presence of ATP relative to control
The target in test [2] is T1, AMP-activated protein kinase (AMPK) alpha-1/beta-1/gamma-1 (Homo sapiens, UniProt P54619+Q13131+Q9Y478). The experiment in a line: Activation of full length human recombinant AMPK alpha1/beta1/gamma1 expressed in baculovirus infected sf21 cells using 5'-FAM-SAMS peptide substrate after 45 mins by fluorescence assay.
Test [3] concerns the target T2, AMP-activated protein kinase (AMPK) alpha-1/beta-1/gamma-1 (Homo sapiens) (UniProt P54619+Q9Y478+Q13131). The experiment in a line: Activation of full length human recombinant AMPK alpha1/beta1/gamma1 expressed in baculovirus infected sf21 cells using 5'-FAM-SAMS peptide substrate after 45 mins by fluorescence assay relative to AMP.
The target of test [4] is T3, AMP-activated protein kinase, AMPK (Homo sapiens) (UniProt P54646+O43741+P54619+Q9UGJ0+Q9Y478+Q13131+Q9UGI9). The experiment in a line: Activation of AMPK (unknown origin) assessed as residual activity at 30 uM using AMARAA peptide after 30 mins by DELFIA assay relative to control.
In a further test the test system is Mus musculus. The experiment in a line: Antidiabetic activity in […] ob/ob mouse model assessed as reduction in blood glucose level at 150 mg/kg, po bid for 8 days relative to control. The settings on record: 192 h. It is filed as functional.
For test [5], the species on record is Rattus norvegicus. The experiment in a line: Activation of rat liver AMPK assessed as increase in biotinylated AMARAA peptide phosphorylation at 200 uM measured after 30 mins by DELFIA assay relative to control.
The target in test [6] is T1, AMP-activated protein kinase (AMPK) alpha-1/beta-1/gamma-1. The experiment in a line: Activation of full length human recombinant AMPK alpha1/beta1/gamma1 expressed in baculovirus infected sf21 cells using SAMS peptide substrate after 30 mins in presence of [33P]ATP by TopCount analysis.
The target of test [7] is T2, AMP-activated protein kinase (AMPK) alpha-1/beta-1/gamma-1 (Homo sapiens). The experiment in a line: Activation of full length human recombinant AMPK alpha1/beta1/gamma1 expressed in baculovirus infected sf21 cells using SAMS peptide substrate after 30 mins in presence of [33P]ATP by TopCount analysis relative to AMP.
In test [8] the target is T3, AMP-activated protein kinase, AMPK (Homo sapiens). The experiment in a line: Activation of human recombinant AMPK assessed as increase in ADP accumulation using SAMS peptide after 30 mins by fluorescence assay.
A short description of test [9]: Activation of rat liver AMPK assessed as increase in 33P-phosphorylation of SAMS peptide.
For test [10], the target named is T4, AMPK alpha2/beta2/gamma1 (Homo sapiens) (UniProt P54646+O43741+P54619). The experiment in a line: Activation of full length human His6-tagged AMPK alpha2/beta2/gamma1 expressed in Escherichia coli BL21-CodonPlus (DE3)-RIPL using FL-Peptide 7 substrate incubated for 2 hrs by fluorescence assay.
The target in test [11] is T4, AMPK alpha2/beta2/gamma1 (Homo sapiens). The experiment in a line: Activation of full length human His6-tagged AMPK alpha2/beta2/gamma1 expressed in Escherichia coli BL21-CodonPlus (DE3)-RIPL using FL-Peptide 7 substrate incubated for 2 hrs by fluorescence assay relative to AMP.
For test [12], the target named is AMP-activated protein kinase, AMPK. The experiment in a line: Activation of recombinant AMPK (unknown origin) after 30 mins in presence of [gamma33P]ATP by scintillation proximity assay. Set-up: species or system Homo sapiens. A general note: Scintillation proximity formats need no separation of bound from free tracer.
Test [13] deals with T1, AMP-activated protein kinase (AMPK) alpha-1/beta-1/gamma-1. The experiment in a line: Binding affinity for full length human N-terminal His/BAP-tagged AMPK alpha1/beta1/gamma1 expressed in Escherichia coli BL21-CodonPlus by surface plasmon resonance method.
Test [14] has the same target. The experiment in a line: Activation of full length human His/GST-tagged AMPK alpha1/beta1/gamma1 expressed in baculovirus expression system after 1 hr by Z'Lyte assay.

T2 sequence (P54619 whole entry): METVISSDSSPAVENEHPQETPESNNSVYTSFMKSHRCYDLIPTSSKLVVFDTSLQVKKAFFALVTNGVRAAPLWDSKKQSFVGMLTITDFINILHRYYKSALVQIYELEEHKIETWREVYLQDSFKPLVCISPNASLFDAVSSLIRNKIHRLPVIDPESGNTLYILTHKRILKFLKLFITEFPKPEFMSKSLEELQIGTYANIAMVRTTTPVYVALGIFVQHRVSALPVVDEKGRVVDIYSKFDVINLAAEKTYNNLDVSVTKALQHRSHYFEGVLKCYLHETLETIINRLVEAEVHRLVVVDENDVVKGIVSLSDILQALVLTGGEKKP
T2 sequence (Q13131 whole entry partner): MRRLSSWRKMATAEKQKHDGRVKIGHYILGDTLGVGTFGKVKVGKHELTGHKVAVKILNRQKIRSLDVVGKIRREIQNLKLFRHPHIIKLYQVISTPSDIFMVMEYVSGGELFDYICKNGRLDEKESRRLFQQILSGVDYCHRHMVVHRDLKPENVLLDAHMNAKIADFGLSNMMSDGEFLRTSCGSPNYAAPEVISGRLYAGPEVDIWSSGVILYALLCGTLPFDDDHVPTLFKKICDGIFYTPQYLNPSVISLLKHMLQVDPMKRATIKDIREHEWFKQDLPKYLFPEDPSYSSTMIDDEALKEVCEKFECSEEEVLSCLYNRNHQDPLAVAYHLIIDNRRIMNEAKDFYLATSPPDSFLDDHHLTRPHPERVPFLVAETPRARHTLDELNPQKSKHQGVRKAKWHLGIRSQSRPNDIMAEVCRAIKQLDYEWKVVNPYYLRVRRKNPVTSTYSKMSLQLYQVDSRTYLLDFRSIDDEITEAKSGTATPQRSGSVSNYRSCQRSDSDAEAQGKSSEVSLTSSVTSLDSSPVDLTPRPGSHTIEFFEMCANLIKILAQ
T2 sequence (Q9Y478 2-270 partner limits assumed): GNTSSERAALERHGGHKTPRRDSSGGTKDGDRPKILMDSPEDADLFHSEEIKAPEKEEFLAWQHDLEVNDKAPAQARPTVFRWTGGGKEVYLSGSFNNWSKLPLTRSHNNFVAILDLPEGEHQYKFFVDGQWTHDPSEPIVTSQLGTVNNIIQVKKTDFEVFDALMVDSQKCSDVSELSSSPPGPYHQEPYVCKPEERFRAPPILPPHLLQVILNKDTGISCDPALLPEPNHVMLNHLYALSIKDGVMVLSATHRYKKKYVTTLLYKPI
T1 sequence (P54619 whole entry): as the sequence (P54619 whole entry) above
T1 sequence (Q9Y478 whole entry): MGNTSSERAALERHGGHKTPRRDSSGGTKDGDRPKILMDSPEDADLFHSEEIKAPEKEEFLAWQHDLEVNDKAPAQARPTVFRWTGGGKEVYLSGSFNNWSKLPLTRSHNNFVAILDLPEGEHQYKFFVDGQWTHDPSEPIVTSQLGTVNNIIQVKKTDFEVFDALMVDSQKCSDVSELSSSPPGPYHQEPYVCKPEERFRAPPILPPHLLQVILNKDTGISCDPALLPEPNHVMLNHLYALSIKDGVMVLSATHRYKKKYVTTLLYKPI
T1 sequence (Q13131 whole entry): as the sequence (Q13131 whole entry partner) above
T4 sequence (O43741 whole entry, looked up): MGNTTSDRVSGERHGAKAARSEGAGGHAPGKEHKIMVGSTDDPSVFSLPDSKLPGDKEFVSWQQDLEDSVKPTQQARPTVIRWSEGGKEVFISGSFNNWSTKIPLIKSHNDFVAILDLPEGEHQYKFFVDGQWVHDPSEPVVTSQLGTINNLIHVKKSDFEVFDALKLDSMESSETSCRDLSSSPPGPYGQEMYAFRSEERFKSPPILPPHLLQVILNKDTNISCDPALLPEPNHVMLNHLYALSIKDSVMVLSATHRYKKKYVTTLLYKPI
T4 sequence (P54619 whole entry, looked up): as the sequence (P54619 whole entry) above
T4 sequence (P54646 whole entry, looked up): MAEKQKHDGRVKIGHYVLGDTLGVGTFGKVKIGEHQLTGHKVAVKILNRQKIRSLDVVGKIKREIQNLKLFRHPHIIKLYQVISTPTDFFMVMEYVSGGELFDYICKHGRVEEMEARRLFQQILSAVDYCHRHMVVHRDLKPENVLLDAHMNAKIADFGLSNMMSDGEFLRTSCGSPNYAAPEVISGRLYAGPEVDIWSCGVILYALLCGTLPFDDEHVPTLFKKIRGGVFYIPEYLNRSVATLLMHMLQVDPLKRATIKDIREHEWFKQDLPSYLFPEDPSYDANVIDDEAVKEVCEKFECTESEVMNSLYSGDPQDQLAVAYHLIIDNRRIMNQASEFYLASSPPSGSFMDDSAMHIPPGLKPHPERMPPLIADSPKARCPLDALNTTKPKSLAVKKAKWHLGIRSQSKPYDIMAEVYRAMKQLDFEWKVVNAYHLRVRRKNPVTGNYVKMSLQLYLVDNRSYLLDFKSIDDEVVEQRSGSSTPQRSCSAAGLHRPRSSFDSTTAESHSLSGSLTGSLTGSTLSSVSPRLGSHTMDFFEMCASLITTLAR

The compound `O=C(O)c1ccccc1O` gave an A0.5 in the test filed under Rattus norvegicus [1] of 1 mM.

Broadly, the EC50 is the concentration that produces a half-maximal response. As for `Cc1ccc(Oc2nc3nc(-c4ccc(N5CCCC5)cc4)c(Cl)cc3[nH]2)cc1C(=O)O`, in test [2], the EC50 was 1 nM. Also, the %max in test [3] is 681%.

Usually inhibition in vivo stands for the change of the read-out against control, counted positive when it falls. Take `O=c1[nH]c2sc(Cl)c(-c3ccc4c(c3O)CCCC4)c2c(O)c1-c1ccccc1`: in [4], the Activity was > 130%. Further, in the test on Mus musculus, the inhibition in vivo at 150 mg/kg came out at 41%.

Consider `COc1ccc(NC(=O)Nc2ccc(Cn3cnc(O)c3C(N)=O)cc2)cc1`, for which, in the test filed under Rattus norvegicus [5], the Activity stood at 229%.

On to `Cc1ccc(Oc2nc3cc(-c4ccc(N5CCOCC5)cc4)c(Cl)cc3[nH]2)cc1P(=O)(O)O`, for which the EC50 in test [6] stood at 1.2 nM. Also, the %max in test [7] was found to be 224%.

For orientation: EC30 means the concentration needed for an effect of 30%. With `CC1(C)CC(c2ccccc2NS(=O)(=O)c2cccc(F)c2)Nc2ccc(C(F)(F)F)cc21` (stereo unspecified), the EC30 in [8] is 1140 nM.

Turning to `N#Cc1c(O)c2c(-c3ccc(-c4ccccc4O)cc3)csc2[nH]c1=O`, the EC50 in test [9] came to 800 nM.

With `Cc1ccc(Oc2nc3cc(-c4ccc5c(ccn5C)c4)c(Cl)cc3[nH]2)cc1C(=O)O`, the %max in test [7] is 241%.

Broadly, the Emax is the greatest response seen or fitted, relative to the assay's reference. `O[C@@H]1CO[C@H]2[C@@H]1OC[C@H]2Oc1cc2nc(-c3c(F)cc(N4CCOCC4)cc3F)c(F)cc2[nH]1` showed an EC150 in test [10] of 8.8 nM. The Emax in test [11] was 729%.

`O=C(O)c1ccc2c(c1)C1(CC1)CC(c1cc(Cl)ccc1F)N2` (stereo unspecified): the half-maximal effective concentration (EC50) in [12] was 1240 nM.

As a reminder, the Kd is the concentration at which binding is half-saturated. Read a high Kd as a looser complex. For the compound `N#Cc1c(O)c2c(-c3ccc(-c4ccccc4O)cc3)c(Cl)sc2[nH]c1=O`, binding in test [13] was put at a Kd of 74 nM. That is a double-digit nanomolar value.

Consider `Nc1nc(-c2ccc(-n3c(Cl)cc4[nH]c(=O)n(-c5cccc(C(=O)O)c5)c(=O)c43)cc2)cs1`, for which the EC50 in [14] is 631 nM.
